Measured values published in US20250304576A1 (Cancer Research Technology Limited, priority 2022, published 2025).

Target: T1, Recombinant IKKβ (Homo sapiens, UniProt O14920)
T1 construct: purchased Millipore, Dundee, UK
T1 sequence (O14920 1-756): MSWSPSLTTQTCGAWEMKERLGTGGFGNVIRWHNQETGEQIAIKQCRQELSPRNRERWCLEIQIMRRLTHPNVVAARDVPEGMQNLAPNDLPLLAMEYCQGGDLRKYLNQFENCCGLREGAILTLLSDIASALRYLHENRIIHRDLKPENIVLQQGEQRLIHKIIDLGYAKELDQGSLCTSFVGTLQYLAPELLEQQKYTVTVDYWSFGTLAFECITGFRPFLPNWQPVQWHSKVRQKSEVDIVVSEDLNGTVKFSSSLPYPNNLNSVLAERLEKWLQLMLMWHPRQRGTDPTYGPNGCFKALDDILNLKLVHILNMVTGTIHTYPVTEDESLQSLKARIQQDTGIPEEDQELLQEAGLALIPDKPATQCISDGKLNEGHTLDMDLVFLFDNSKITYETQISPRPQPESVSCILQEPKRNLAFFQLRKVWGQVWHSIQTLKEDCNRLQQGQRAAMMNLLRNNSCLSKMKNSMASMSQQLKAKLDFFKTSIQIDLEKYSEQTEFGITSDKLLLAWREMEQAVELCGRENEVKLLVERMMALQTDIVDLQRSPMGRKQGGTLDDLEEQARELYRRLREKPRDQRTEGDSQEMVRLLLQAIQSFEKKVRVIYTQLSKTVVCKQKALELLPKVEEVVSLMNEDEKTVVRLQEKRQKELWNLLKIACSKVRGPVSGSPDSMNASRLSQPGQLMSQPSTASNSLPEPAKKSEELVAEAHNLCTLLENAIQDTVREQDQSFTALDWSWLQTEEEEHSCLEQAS
Assay: DELFIA IKKβ kinase assay (apparent Ki, Cheng-Prusoff)
Format: biochemical
Method in brief: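 Recombinant IKKα or IKKβ (37 nM) with 0.375 μM biotinylated IκB-α (Ser32) peptide and 40 μM ATP in 40 mM Tris-HCl pH 7.5, 20 mM MgCl2, 60 min at 30° C. Phospho-substrate captured on streptavidin and detected by anti-phospho-IκB-α plus europium anti-mouse IgG time-resolved fluorescence; apparent Ki via Cheng-Prusoff.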

[1] = non-italicised figure: DELFIA assay
[2] = DELFIA assay (first line of an example)

**Q.** For CC(C)(C)C#Cc1c(-c2ccc3[nH]nc(N)c3c2)ccnc1N [Example 72, 5-(2-Amino-3-(3,3-dimethylbut-1-yn-1-yl)pyridine-4-yl)-1H-indazol-3-amine], which Ki [1] is on record?
**A.** 268 nM

**Q.** Nc1nccc(-c2ccc3[nH]nc(N)c3c2)c1C#CC1CCCC1 [Example 73, 5-(2-Amino-3-(cyclopentylethynyl)pyridine-4-yl)-1H-indazol-3-amine] was tested. Which Ki [1] did it give?
**A.** 289 nM

**Q.** Nc1nccc(-c2ccc3[nH]nc(N)c3c2)c1C#CC1CCCCC1 [Example 74, 5-(2-Amino-3-(cyclohexylethynyl)pyridine-4-yl)-1H-indazol-3-amine] was tested. Which Ki [1] did it give?
**A.** 342 nM

**Q.** Which Ki [1] does the source give for Nc1nccc(-c2ccc3[nH]nc(N)c3c2)c1C#Cc1ccccc1 [Example 75, 5-(2-Amino-3-(phenylethynyl)pyridine-4-yl)-1H-indazol-3-amine] here?
**A.** 152 nM

**Q.** Nc1nccc(-c2ccc3[nH]nc(N)c3c2)c1C#CCO [Example 83, 3-(2-Amino-4-(3-amino-1H-indazol-5-yl)pyridine-3-yl)prop-2-yn-1-ol] was tested. Which Ki [1] did it give?
**A.** 402 nM

**Q.** With Nc1nccc(-c2ccc3[nH]nc(N)c3c2)c1C#CCCO [Example 84, 4-(2-Amino-4-(3-amino-1H-indazol-5-yl)pyridine-3-yl)but-3-yn-1-ol] as the molecule, how does the Ki [1] read?
**A.** 103 nM

**Q.** How did the Ki [1] turn out when Nc1nccc(-c2ccc3[nH]nc(N)c3c2)c1C#CCCCO [Example 85, 5-(2-Amino-4-(3-amino-1H-indazol-5-yl)pyridine-3-yl)pent-4-yn-1-ol] was run?
**A.** 96 nM

**Q.** Which Ki [1] does the source give for CC(C)(O)C#Cc1c(-c2ccc3[nH]nc(N)c3c2)ccnc1N [Example 87, 4-(2-Amino-4-(3-amino-1H-indazol-5-yl)pyridine-3-yl)-2-methylbut-3-yn-2-ol] here?
**A.** 294 nM

**Q.** Which Ki [1] does the source give for CC(C)(C)OCC#Cc1c(-c2ccc3[nH]nc(N)c3c2)ccnc1N [Example 88, 5-(2-Amino-3-(3-(tert-butoxy)prop-1-yn-1-yl)pyridine-4-yl)-1H-indazol-3-amine] here?
**A.** 2340 nM

**Q.** How did the Ki [1] turn out when Nc1nccc(-c2ccc3[nH]nc(N)c3c2)c1C#CC1(O)CCCCC1 [Example 90, 1-((2-Amino-4-(3-amino-1H-indazol-5-yl)pyridine-3-yl)ethynyl)cyclohexan-1-ol] was run?
**A.** 1410 nM

**Q.** With Nc1nccc(-c2ccc3[nH]nc(N)c3c2)c1C#CC1(O)CCCCCC1 [Example 91, 1-((2-Amino-4-(3-amino-1H-indazol-5-yl)pyridine-3-yl)ethynyl)cycloheptan-1-ol] as the molecule, how does the Ki [1] read?
**A.** 3090 nM

**Q.** With CC(C)(N)C#Cc1c(-c2ccc3[nH]nc(N)c3c2)ccnc1N [Example 92, 5-(2-Amino-3-(3-amino-3-methylbut-1-yn-1-yl)pyridin-4-yl)-1H-indazol-3-amine] as the molecule, how does the Ki [1] read?
**A.** 325 nM

**Q.** For Nc1nccc(-c2ccc3[nH]nc(N)c3c2)c1C#CCCN1CCCCC1 [Example 93, 5-(2-Amino-3-(4-(piperidin-1-yl)but-1-yn-1-yl)pyridin-4-yl)-1H-indazol-3-amine], which Ki [1] is on record?
**A.** 880 nM

**Q.** Which Ki [1] does the source give for Nc1nccc(-c2ccc3[nH]nc(N)c3c2)c1C#CCCCN1CCCCC1 [Example 95, 5-(2-Amino-3-(5-(piperidin-1-yl)pent-1-yn-1-yl)pyridin-4-yl)-1H-indazol-3-amine] here?
**A.** 3270 nM

**Q.** For Nc1nccc(-c2ccc3[nH]nc(N)c3c2)c1C#CCCCN1CCOCC1 [Example 96, 5-(2-Amino-3-(5-morpholinopent-1-yn-1-yl)pyridin-4-yl)-1H-indazol-3-amine], which Ki [1] is on record?
**A.** 1150 nM

**Q.** With Nc1nccc(-c2ccc3[nH]nc(N)c3c2)c1C#CCCC(=O)N1CCOCC1 [Example 99, 5-(2-Amino-4-(3-amino-1H-indazol-5-yl)pyridine-3-yl)-1-morpholinopent-4-yn-1-one] as the molecule, how does the Ki [1] read?
**A.** 531 nM

**Q.** With Nc1cc(-c2cc(-c3ccccc3)c3[nH]nc(N)c3c2)ccn1 [Example 104, 5-(2-Aminopyridin-4-yl)-7-phenyl-1H-indazol-3-amine] as the molecule, how does the Ki [1] read?
**A.** 838 nM

**Q.** With Nc1cc(-c2cc(-c3ccoc3)c3[nH]nc(N)c3c2)ccn1 [Example 129, 5-(2-Aminopyridin-4-yl)-7-(furan-3-yl)-1H-indazol-3-amine] as the molecule, how does the Ki [1] read?
**A.** 511 nM

**Q.** How did the Ki [1] turn out when CC(C)(O)C#Cc1cc(-c2ccnc(N)c2)cc2c(N)n[nH]c12 [Example 140, 4-(3-Amino-5-(2-aminopyridin-4-yl)-1H-indazol-7-yl)-2-methylbut-3-yn-2-ol] was run?
**A.** 3000 nM

**Q.** Which Ki [2] does the source give for C#Cc1cc(-c2ccnc3[nH]ccc23)cc2c(N)n[nH]c12 [Example 200, 7-Ethynyl-5-(1H-pyrrolo[2,3-b]pyridin-4-yl)-1H-indazol-3-amine] here?
**A.** 137 nM

**Q.** CC(C)(C)C#Cc1cc(-c2ccnc3[nH]ccc23)cc2c(N)n[nH]c12 [Example 201, 7-(3,3-Dimethylbut-1-yn-1-yl)-5-(1H-pyrrolo[2,3-b]pyridin-4-yl)-1H-indazol-3-amine] was tested. Which Ki [2] did it give?
**A.** 1390 nM

**Q.** How did the Ki [2] turn out when Nc1n[nH]c2c(C#CC3CC3)cc(-c3ccnc4[nH]ccc34)cc12 [Example 202, 7-(Cyclopropylethynyl)-5-(1H-pyrrolo[2,3-b]pyridin-4-yl)-1H-indazol-3-amine] was run?
**A.** 181 nM

**Q.** For Nc1n[nH]c2c(C#CC3CCCC3)cc(-c3ccnc4[nH]ccc34)cc12 [Example 203, 7-(Cyclopentylethynyl)-5-(1H-pyrrolo[2,3-b]pyridin-4-yl)-1H-indazol-3-amine], which Ki [2] is on record?
**A.** 452 nM

**Q.** Nc1n[nH]c2c(C#CC3CCCCC3)cc(-c3ccnc4[nH]ccc34)cc12 [Example 204, 7-(Cyclohexylethynyl)-5-(1H-pyrrolo[2,3-b]pyridin-4-yl)-1H-indazol-3-amine] was tested. Which Ki [2] did it give?
**A.** 1180 nM

**Q.** How did the Ki [2] turn out when CC(C)(O)C#Cc1cc(-c2ccnc3[nH]ccc23)cc2c(N)n[nH]c12 [Example 206, 4-(3-Amino-5-(1H-pyrrolo[2,3-b]pyridin-4-yl)-1H-indazol-7-yl)-2-methylbut-3-yn-2-ol] was run?
**A.** 1520 nM

**Q.** With Nc1n[nH]c2c(C#CCCCN3CCOCC3)cc(-c3ccnc4[nH]ccc34)cc12 [Example 210, 7-(5-Morpholinopent-1-yn-1-yl)-5-(1H-pyrrolo[2,3-b]pyridin-4-yl)-1H-indazol-3-amine] as the molecule, how does the Ki [2] read?
**A.** 3100 nM

**Q.** Nc1n[nH]c2c(C#CCCCN3CCCCC3)cc(-c3ccnc4[nH]ccc34)cc12 [Example 212, 7-(5-(Piperidin-1-yl)pent-1-yn-1-yl)-5-(1H-pyrrolo[2,3-b]pyridin-4-yl)-1H-indazol-3-amine] was tested. Which Ki [2] did it give?
**A.** 2370 nM

**Q.** Nc1n[nH]c2ccc(-c3ccnc4[nH]c(C5CC5)cc34)cc12 [Example 218, 5-(2-Cyclopropyl-1H-pyrrolo[2,3-b]pyridin-4-yl)-1H-indazol-3-amine] was tested. Which Ki [2] did it give?
**A.** 63 nM

**Q.** Nc1n[nH]c2ccc(-c3ccnc4[nH]c(C5CCCCC5)cc34)cc12 [Example 219, 5-(2-Cyclohexyl-1H-pyrrolo[2,3-b]pyridin-4-yl)-1H-indazol-3-amine] was tested. Which Ki [2] did it give?
**A.** 461 nM

**Q.** CC(C)(C)Cc1cc2c(-c3ccc4[nH]nc(N)c4c3)ccnc2[nH]1 [Example 220, 5-(2-Neopentyl-1H-pyrrolo[2,3-b]pyridin-4-yl)-1H-indazol-3-amine] was tested. Which Ki [2] did it give?
**A.** 838 nM

**Q.** Which Ki [2] does the source give for Nc1n[nH]c2ccc(-c3ccnc4[nH]c(CC5CCCCC5)cc34)cc12 [Example 221, 5-(2-(Cyclohexylmethyl)-1H-pyrrolo[2,3-b]pyridin-4-yl)-1H-indazol-3-amine] here?
**A.** 461 nM

**Q.** With Nc1n[nH]c2ccc(-c3ccnc4[nH]c(CCC5CCCCC5)cc34)cc12 [Example 222, 5-(2-(2-Cyclohexylethyl)-1H-pyrrolo[2,3-b]pyridin-4-yl)-1H-indazol-3-amine] as the molecule, how does the Ki [2] read?
**A.** 134 nM

**Q.** With Nc1n[nH]c2ccc(-c3ccnc4[nH]c(CO)cc34)cc12 [Example 224] as the molecule, how does the Ki [2] read?
**A.** 503 nM

**Q.** For CC(C)(C)OCc1cc2c(-c3ccc4[nH]nc(N)c4c3)ccnc2[nH]1 [Example 227, 5-(2-(tert-Butoxymethyl)-1H-pyrrolo[2,3-b]pyridin-4-yl)-1H-indazol-3-amine], which Ki [2] is on record?
**A.** 754 nM

**Q.** Which Ki [2] does the source give for Nc1n[nH]c2ccc(-c3ccnc4[nH]c(C5CCOCC5)cc34)cc12 [Example 228, 5-(2-(tetrahydro-2H-pyran-4-yl)-1H-pyrrolo[2,3-b]pyridin-4-yl)-1H-indazol-3-amine] here?
**A.** 97 nM

**Q.** Which Ki [2] does the source give for Nc1n[nH]c2ccc(-c3ccnc4[nH]c(C5CCCCO5)cc34)cc12 (stereo not drawn) [Example 229, 5-(2-(Tetrahydro-2H-pyran-2-yl)-1H-pyrrolo[2,3-b]pyridin-4-yl)-1H-indazol-3-amine] here?
**A.** 272 nM

**Q.** For Nc1n[nH]c2ccc(-c3ccnc4[nH]c(CC5CCOCC5)cc34)cc12 [Example 230, 5-(2-((tetrahydro-2H-pyran-4-yl)methyl)-1H-pyrrolo[2,3-b]pyridin-4-yl)-1H-indazol-3-amine], which Ki [2] is on record?
**A.** 260 nM

**Q.** How did the Ki [2] turn out when Nc1n[nH]c2ccc(-c3ccnc4[nH]c(C(=O)N5CCCC5)cc34)cc12 [Example 234, (4-(3-Amino-1H-indazol-5-yl)-1H-pyrrolo[2,3-b]pyridin-2-yl)(pyrrolidin-1-yl)methanone] was run?
**A.** 272 nM

**Q.** With Nc1n[nH]c2ccc(-c3ccnc4[nH]c(C(=O)NC5CCCCC5)cc34)cc12 [Example 236, 4-(3-Amino-1H-indazol-5-yl)-N-cyclohexyl-1H-pyrrolo[2,3-b]pyridine-2-carboxamide] as the molecule, how does the Ki [2] read?
**A.** 79 nM
